The values below come from US20230219965A1 (KSQ Therapeutics, Inc., priority 2020, published 2023).

Like-named read-outs stand apart in the source and are kept apart here. A value given as a limit tells only on which side of the number the result lay.

The target in one series is USP1/UAF1 enzyme (Homo sapiens, UniProt O94782). The experiment in a line: USP1/UAF1 deubiquitination assay (ubiquitin-rhodamine 110 substrate). In kind it is biochemical. Particulars: read-out: USP1 IC50 (Ub-Rho). Put shortly: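 0.05 nM USP1/UAF1 was preincubated 10 min with compounds (dose response from 10 μM) in 50 mM Tris-HCl pH 7.8, 0.5 mM EDTA, 0.01% BSA, 1 mM DTT, 0.01% Tween-20. 150 nM ubiquitin-rhodamine 110 started the reaction, read kinetically 30 min at Ex480/Em540; IC50 by four-parameter fit versus no-enzyme and DMSO controls.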
Chain of USP1/UAF1 enzyme (O94782 whole entry): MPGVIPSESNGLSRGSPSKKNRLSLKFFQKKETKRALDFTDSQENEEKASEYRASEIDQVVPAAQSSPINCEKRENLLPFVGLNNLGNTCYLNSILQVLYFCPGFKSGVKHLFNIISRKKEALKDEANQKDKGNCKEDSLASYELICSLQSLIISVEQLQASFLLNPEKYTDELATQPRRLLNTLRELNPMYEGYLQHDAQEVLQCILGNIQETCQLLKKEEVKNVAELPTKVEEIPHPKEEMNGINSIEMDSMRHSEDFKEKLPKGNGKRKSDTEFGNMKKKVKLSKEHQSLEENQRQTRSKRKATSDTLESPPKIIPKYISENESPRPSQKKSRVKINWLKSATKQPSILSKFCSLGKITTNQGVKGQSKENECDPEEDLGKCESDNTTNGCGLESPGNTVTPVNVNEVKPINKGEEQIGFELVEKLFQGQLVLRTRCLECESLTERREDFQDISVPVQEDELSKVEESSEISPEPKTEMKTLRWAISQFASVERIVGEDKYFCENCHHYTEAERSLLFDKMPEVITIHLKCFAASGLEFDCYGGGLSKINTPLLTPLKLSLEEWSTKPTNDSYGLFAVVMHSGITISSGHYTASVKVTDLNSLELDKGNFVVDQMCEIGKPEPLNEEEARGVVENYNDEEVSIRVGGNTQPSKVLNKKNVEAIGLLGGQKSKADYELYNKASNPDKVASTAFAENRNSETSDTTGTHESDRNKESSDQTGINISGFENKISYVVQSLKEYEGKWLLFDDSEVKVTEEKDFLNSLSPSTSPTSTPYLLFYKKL
Chain of USP1/UAF1 enzyme (Q8TAF3 whole entry partner): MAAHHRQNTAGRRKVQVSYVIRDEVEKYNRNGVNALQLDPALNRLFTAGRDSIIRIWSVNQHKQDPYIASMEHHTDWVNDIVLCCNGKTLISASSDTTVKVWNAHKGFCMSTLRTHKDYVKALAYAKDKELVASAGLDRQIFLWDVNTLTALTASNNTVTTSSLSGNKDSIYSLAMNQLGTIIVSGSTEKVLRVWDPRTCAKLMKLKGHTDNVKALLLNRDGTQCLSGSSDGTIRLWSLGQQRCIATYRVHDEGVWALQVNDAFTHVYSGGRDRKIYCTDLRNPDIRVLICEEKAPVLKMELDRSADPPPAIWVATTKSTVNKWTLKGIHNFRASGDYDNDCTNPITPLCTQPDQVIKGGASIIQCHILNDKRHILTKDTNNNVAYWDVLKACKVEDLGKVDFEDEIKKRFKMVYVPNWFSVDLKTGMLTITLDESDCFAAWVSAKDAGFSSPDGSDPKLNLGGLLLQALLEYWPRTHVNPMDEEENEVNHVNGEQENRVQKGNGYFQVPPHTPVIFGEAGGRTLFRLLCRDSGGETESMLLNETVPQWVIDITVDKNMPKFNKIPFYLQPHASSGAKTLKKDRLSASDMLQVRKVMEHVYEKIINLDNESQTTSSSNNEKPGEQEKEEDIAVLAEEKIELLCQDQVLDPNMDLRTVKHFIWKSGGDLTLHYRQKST

Series [1] has as its system Ub-PCNA levels in the nucleus of ES2 cells (USP1 activity). The experiment in a line: ES2 Ub-PCNA immunofluorescence (IF) assay. Particulars: Homo sapiens, ES-2; ES2 cells, 3 hours, Ub-PCNA immunofluorescence; read-out: USP1 IC50 (Ub-PCNA). In kind it is cell-based. Here is the method: USP1 is a deubiquitinating enzyme that removes ubiquitin from mono-ubiquitinated Proliferating Cell Nuclear Antigen (Ub-PCNA). The levels of Ub-PCNA in the nucleus of cells can be used to assess the activity of USP1. An immunofluorescence assay can be established to monitor Ub-PCNA levels in the ovarian cancer cell line, ES2.
An assay can be performed by first plating 5000 ES2 cells per well in black 96 well plates (Corning #3904) and then incubating overnight at 37° C. and 5% CO2. Compounds, resuspended in DMSO, can be added to the cells, to a final DMSO concentration of 0.3%. Plates can be incubated at 37° C. and 5% CO2 for 3 hours.
Cells can be then fixed and stained by first removing the media from each plate and fixing the cells with −20° C. methanol for 5 minutes at room temperature. Fixation plates can be washed with Tris buffered saline with tween (Boston Bioproducts #IBB-855) 5 times for 5 minutes each. Plates can be blocked for 1 hour with 50 μl of Odyssey blocking buffer (Licor #327-50000) at room temperature with rocking. Block can be removed from all wells and 50 μl of primary antibody was added to each well. Ub-PCNA ab (Cell Signaling Technology #13439) can be diluted at 1:400 in Odyssey blocking buffer. Plates can be sealed and incubated overnight at 4° C. Primary antibodies can be removed from the plates and plates can be washed with Tris buffered saline with tween 5 times for 5 minutes. Plates can be stained for 1 hour at room temperature with rocking with 50 μl of secondary antibodies diluted 1:10,000 in Odyssey blocking buffer at room temperature (anti-rabbit Alexa 488). Antibodies can be removed from the plates and plates can be washed with Tris buffered saline with tween 3 times for 5 minutes. Plates can be washed once with DAPI (Chemometec #910-3012) stain diluted 1:5000 (Stock solution of 500 μg/ml) in tris buffered saline with tween for 5 minutes. DAPI stain can be removed and plates can be washed one additional time for 5 minutes with tris buffered saline with tween. Wash can be removed from the plate and 100 μl tris buffered saline with tween can be added back to all wells, Plates can be sealed with Foil seals or black plate seals and plates can be stored at 4° C. until they can be imaged.
Imaging of the plates can be performed by first locating the nuclei using the DAPI stain. A mask can be created by drawing a circle slightly smaller than each nucleus. Ub-PCNA intensities can be measured for each individual nucleus counted. A histogram of all Ub-PCNA nuclear intensities measured in untreated wells can be generated and a 95% cutoff can be established. This 95% cutoff can be used to determine the number of Positive cells that have Ub-PCNA values higher than the 95% cutoff. The number of positive cells can be expressed as a percentage by dividing by the total number of cells in the well. This percent positive value can be used to graph all data and to determine AC50 values.
USP1 is a deubiquitinating enzyme that removes ubiquitin from mono-ubiquitinated
Proliferating Cell Nuclear Antigen (Ub-PCNA). The levels of Ub-PCNA in the nucleus of cells was used to assess the activity of USP1. An immunofluorescence assay was established to monitor Ub-PCNA levels in the ovarian cancer cell line, ES2.
This assay was performed by first plating 5000 ES2 cells per well in black 96 well plates (Corning #3904) and then incubated overnight at 37° C. and 5% CO2. Compounds, resuspended in DMSO, were added to the cells, to a final DMSO concentration of 0.3%. Plates were incubated at 37° C. and 5% CO2 for 3 hours.
Cells were then fixed and stained by first removing the media from each plate and fixing the cells with −20° C. methanol for 5 minutes at room temperature. Following fixation plates were washed with Tris buffered saline with tween (Boston Bioproducts ABB-855) 5 times for 5 minutes each. Plates were blocked for 1 hour with 50μ.1 of Odyssey blocking buffer (Licor #327-50000) at room temperature with rocking. […]

A short description of series [2]: ADME solubility determination in PBS at pH 2.0 and pH 7.4. In kind it is physicochemical. Particulars: phosphate buffered saline, 25 °C, thermodynamic from solid. The method in brief: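 Dried 10 mM DMSO stock residues taken up in PBS pH 7.4 or pH 2.0, shaken 24 h at 25° C. After centrifugation, supernatant quantified by LC-MS/MS against a standard of known concentration, with a dilution factor applied.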

Series [3] in a line: Liver microsomal metabolic stability, rat liver microsomes (RLM). Particulars: rat, liver microsomes, t1/2 (min) in RLM, 1 μM compound, 1 mg/mL microsomes, NADPH.
Series [4] is described as follows: Liver microsomal metabolic stability, human liver microsomes (HLM). Particulars: human, liver microsomes. (Liver microsomes are a subcellular fraction often used to study metabolism.)
Setting [5] is: pH 2, aqueous buffer, PBS pH 2.0, 25° C., read-out: Solubility at pH 2.0.
Where [6] appears, read: pH 7.4, aqueous buffer, PBS pH 7.4, 25° C., read-out: Solubility at pH 7.4.

With `COc1cc(C(F)(F)F)nn1-c1ccc(CN2C(=O)CCn3nc(-c4c(Cl)cnn4C(C)C)cc32)cc1F` [Example 14, 2-(4-chloro-1-isopropyl-1H-pyrazol-5-yl)-4-(3-fluoro-4-(5-methoxy-3-(trifluoromethyl)-1H-pyrazol-1-yl)benzyl)-6,7-dihydropyrazolo[1,5-a]pyrimidin-5(4H)-one], the half-maximal inhibitory concentration (IC50) (on USP1/UAF1 enzyme; in series [1]) was less than 0.1 µM throughout. The solubility at 24 h in series [2] (setting [5]) and in series [2] (setting [6]) was less than 10 µM throughout. For the same molecule, the half-life at 1 μM in series [3] and in series [4] was greater than 25 min each time.
With `CC(C)n1ncc(Cl)c1-c1cc2n(n1)CCC(=O)N2Cc1ccc(-c2nc(C(F)(F)F)cn2C)c(F)c1` [Example 16, 2-(4-chloro-1-isopropyl-1H-pyrazol-5-yl)-4-(3-fluoro-4-(1-methyl-4-(trifluoromethyl)-1H-imidazol-2-yl)benzyl)-6,7-dihydropyrazolo[1,5-a]pyrimidin-5(4H)-one], the IC50 (at USP1/UAF1 enzyme; in series [1]) was less than 0.1 µM in each case. Moreover, the solubility at 24 h in series [2] (setting [5]) and in series [2] (setting [6]) was less than 10 µM each time. Further, the values for the half-life at 1 μM in series [3] and in series [4] were less than 25 min and greater than 25 min, respectively.
Consider `COc1ncnc(C2CC2)c1-c1cc2n(n1)CCC(=O)N2Cc1ccc(-c2nc(C(F)(F)F)cn2C(C)C)c(F)c1` [Example 18, 2-(4-cyclopropyl-6-methoxypyrimidin-5-yl)-4-(3-fluoro-4-(1-isopropyl-4-(trifluoromethyl)-1H-imidazol-2-yl)benzyl)-6,7-dihydropyrazolo[1,5-a]pyrimidin-5(4H)-one], for which the IC50 (on USP1/UAF1 enzyme; in series [1]) was less than 0.1 µM in each case. Besides, the solubility at 24 h in series [2] (setting [5]) and in series [2] (setting [6]) was less than 10 µM each time. In addition, the half-life at 1 μM in series [3] and in series [4] was greater than 25 min each time.
`CC(C)n1cc(C(F)(F)F)nc1-c1ccc(CN2C(=O)CCn3nc(-c4c(Cl)cnn4C(C)C)cc32)cc1F` [Example 20, 2-(4-chloro-1-isopropyl-1H-pyrazol-5-yl)-4-(3-fluoro-4-(1-isopropyl-4-(trifluoromethyl)-1H-imidazol-2-yl)benzyl)-6,7-dihydropyrazolo[1,5-a]pyrimidin-5(4H)-one]: the IC50 (on USP1/UAF1 enzyme; in series [1]) was less than 0.1 µM throughout. The solubility at 24 h in series [2] (setting [5]) and in series [2] (setting [6]) was less than 10 µM throughout. In addition, the half-life at 1 μM in series [3] and in series [4] was greater than 25 min throughout.
On to `COc1ncnc(C2CCC2)c1-c1cc2n(n1)CCC(=O)N2Cc1ccc(-c2nc(C(F)(F)F)cn2C)c(F)c1` [Example 22], for which the IC50 (at USP1/UAF1 enzyme; in series [1]) was less than 0.1 µM in each case. For the same molecule, the solubility (commonly the concentration that dissolves in the medium under given conditions) at 24 h in series [2] (setting [5]) is no less than 10 µM; in series [2] (setting [6]) it was less than 10 µM. Moreover, the half-life at 1 μM in series [3] and in series [4] was less than 25 min throughout.
For `COc1ncnc(C2CC2)c1-c1cc2n(n1)CCCN2Cc1ccc(-c2nc(C(F)(F)F)cn2C)cc1` [Example 24, 2-(4-cyclopropyl-6-methoxypyrimidin-5-yl)-4-(4-(1-methyl-4-(trifluoromethyl)-1H-imidazol-2-yl)benzyl)-4,5,6,7-tetrahydropyrazolo[1,5-α]pyrimidine], the concentration for half-maximal inhibition (IC50) (on USP1/UAF1 enzyme; in series [1]) was less than 0.1 µM throughout. For the same molecule, the solubility at 24 h in series [2] (setting [5]) and in series [2] (setting [6]) was no less than 10 µM in each case. Besides, the half-life at 1 μM in series [3] and in series [4] was less than 25 min each time.
For the molecule `COc1ncnc(C)c1-c1cc2n(n1)CCCN2Cc1ccc(-c2nc(C(F)(F)F)cn2C)cc1` [Example 25], the half-maximal inhibitory concentration (IC50) – broadly, the concentration that gives 50% inhibition – is 0.1 to 0.5 µM on USP1/UAF1 enzyme and greater than 0.5 µM in series [1]. The solubility at 24 h in series [2] (setting [5]) and in series [2] (setting [6]) was no less than 10 µM throughout. The half-life at 1 μM in series [3] and in series [4] was less than 25 min in each case.
In the case of `COc1ncnc(C2CC2)c1-c1cc2n(n1)CCCN2Cc1ccc(-n2nc(C(F)(F)F)cc2C)cc1` [Example 27], the concentration for half-maximal inhibition (IC50) (on USP1/UAF1 enzyme; in series [1]) was less than 0.1 µM in each case. Besides, the solubility at 24 h is no less than 10 µM in series [2] (setting [5]) and less than 10 µM in series [2] (setting [6]). The half-life at 1 μM in series [3] and in series [4] was less than 25 min throughout.
As to `CCn1cc(C(F)(F)F)nc1-c1ccc(CN2CC3(CC3)Cn3nc(-c4c(OC)ncnc4C4CC4)cc32)cc1F` [Example 30], the IC50 (on USP1/UAF1 enzyme; in series [1]) was less than 0.1 µM throughout. In addition, the results for the solubility at 24 h in series [2] (setting [5]) and in series [2] (setting [6]) were no less than 10 µM and less than 10 µM, respectively. In addition, the half-life at 1 μM in series [3] and in series [4] was less than 25 min each time.
On to `COc1ncnc(C2CC2)c1-c1nn2c(c1Cl)N(Cc1ccc(-c3nc(C(F)(F)F)cn3C)cc1)C(=O)CC2` [Example 33, 3-chloro-2-(4-cyclopropyl-6-methoxypyrimidin-5-yl)-4-(4-(1-methyl-4-(trifluoromethyl)-1H-imidazol-2-yl)benzyl)-6,7-dihydropyrazolo[1,5-α]pyrimidin-5(4H)-one], for which the half-inhibitory concentration (IC50) (at USP1/UAF1 enzyme; in series [1]) was less than 0.1 µM throughout. For the same molecule, the solubility at 24 h in series [2] (setting [5]) and in series [2] (setting [6]) was less than 10 µM throughout. In addition, the half-life at 1 μM in series [3] and in series [4] was greater than 25 min throughout.
In the case of `COc1ncnc(C2CC2)c1-c1nn2c(c1C)N(Cc1ccc(-c3nc(C(F)(F)F)cn3C)cc1)C(=O)CC2` [Example 35, 2-(4-cyclopropyl-6-methoxypyrimidin-5-yl)-3-methyl-4-(4-(1-methyl-4-(trifluoromethyl)-1H-imidazol-2-yl)benzyl)-6,7-dihydropyrazolo[1,5-α]pyrimidin-5(4H)-one], the IC50 at USP1/UAF1 enzyme is 0.1 to 0.5 µM; in series [1], greater than 0.5 µM. Besides, the solubility at 24 h in series [2] (setting [5]) and in series [2] (setting [6]) was less than 10 µM in each case. Moreover, the half-life (commonly the time in which the quantity being followed falls by half) at 1 μM is greater than 25 min in series [3] and less than 25 min in series [4].
In the case of `Cc1cnn(C(C)C)c1-c1nc2n(n1)CCC(=O)N2Cc1ccc(-c2nc(C(F)(F)F)cn2C)cc1` [Example 37, 2-(1-isopropyl-4-methyl-1H-pyrazol-5-yl)-4-(4-(1-methyl-4-(trifluoromethyl)-1H-imidazol-2-yl)benzyl)-6,7-dihydro-[1,2,4]triazolo[1,5-α]pyrimidin-5(4H)-one], the half-inhibitory concentration (IC50) (at USP1/UAF1 enzyme; in series [1]) was less than 0.1 µM each time. The solubility at 24 h in series [2] (setting [5]) and in series [2] (setting [6]) was less than 10 µM each time. Besides, the half-life at 1 μM in series [3] and in series [4] was less than 25 min in each case.
